Literature values, collected in patent US20090270335A1, “COLLYRIUM FOR DRY EYE” (AQUEOUS PHARMA LIMITED, priority 2006, published 2009).

System: tear secretion
Conditions: topical application
[1] = both in dry eye patients and people not suffering from dry eye

CC[C@H](C)[C@H](NC(=O)[C@H](Cc1ccccc1)NC(=O)[C@H](C)NC(=O)[C@H](CC(=O)O)NC(=O)[C@H](CCCCN)NC(=O)[C@H](CO)NC(=O)[C@@H]1CCCN1C(=O)[C@@H]1CCC(=O)N1)C(=O)NCC(=O)N[C@@H](CC(C)C)C(=O)N[C@@H](CCSC)C(N)=O [eledoisin, Glu-Pro-Ser-Lys-Asp-Ala-Phe-Ile-Gly-Leu-Met-NH2]
tear secretion rate [1]: increase | tear volume [1]: increase | side effect: chemosis (patients): not pronounced | side effect: hyperemia of the conjunctiva (patients): observed initially in some patients
